In paper PMC4988501, “Pinpointing a Mechanistic Switch Between Ketoreduction and “Ene” Reduction in Short‐Chain Dehydrogenases/Reductases” (Angewandte Chemie (International Ed. in English), 2016):

Legend:
Type in all cases: binding
[1] = target: T1, IPR (isopiperitenone reductase) (Mentha x piperita, UniProt Q6WAU1); assay: X-ray crystal structure; settings: oxidised cofactor scavenged from expression host
T1 construct: recombinant; scavenged NADP+ from host cells; catalytic Glu238; construct details only in supplement

[2] = target: T2, MNMR ((−)‐menthone:(+)‐neomenthol reductase) (Mentha x piperita, UniProt Q06ZW2); assay: X-ray crystal structure, crystal soaking; settings: crystals soaked with NADP+
T2 construct: recombinant; catalytic Tyr244; construct details only in supplement

[3] = target: T1, IPR (isopiperitenone reductase); assay: X-ray crystal structure of complex; settings: non-substrate, bound in a non-active conformation; with NADP+

T1 sequence (Q6WAU1 whole entry): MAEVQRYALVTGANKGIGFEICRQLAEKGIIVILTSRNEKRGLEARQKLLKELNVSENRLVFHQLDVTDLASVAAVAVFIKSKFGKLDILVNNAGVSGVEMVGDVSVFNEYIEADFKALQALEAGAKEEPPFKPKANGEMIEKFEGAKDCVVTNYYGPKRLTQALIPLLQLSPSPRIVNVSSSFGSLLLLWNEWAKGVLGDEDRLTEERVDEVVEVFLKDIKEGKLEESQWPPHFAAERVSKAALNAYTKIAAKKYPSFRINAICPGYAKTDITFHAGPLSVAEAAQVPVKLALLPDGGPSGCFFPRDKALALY
T2 sequence (Q06ZW2 entry or part of it): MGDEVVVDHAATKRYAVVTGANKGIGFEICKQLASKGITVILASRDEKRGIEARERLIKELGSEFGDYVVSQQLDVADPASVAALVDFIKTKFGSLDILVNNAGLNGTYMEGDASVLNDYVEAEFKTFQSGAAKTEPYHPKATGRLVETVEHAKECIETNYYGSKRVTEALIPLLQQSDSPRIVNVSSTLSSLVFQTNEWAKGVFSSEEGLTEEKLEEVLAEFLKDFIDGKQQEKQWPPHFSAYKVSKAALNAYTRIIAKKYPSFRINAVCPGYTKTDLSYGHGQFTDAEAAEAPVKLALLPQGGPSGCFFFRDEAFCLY

Structure (SMILES)	X-ray crystal structure [1]	X-ray crystal structure, crystal soaking [2]	X-ray crystal structure of complex [3]
NC(=O)c1ccc[n+]([C@@H]2O[C@H](COP(=O)(O)OP(=O)(O)OC[C@H]3O[C@@H](n4cnc5c(N)ncnc54)[C@H](OP(=O)(O)O)[C@@H]3O)[C@@H](O)[C@H]2O)c1 [NADP+]	presence of clear density in the F0−Fc map for NADP^+	A coenzyme‐bound MNMR structure was obtained by soaking crystals with NADP^+	–
CC1=C(C=O)C(C)(C)CCC1 [β‐cyclocitral]	–	–	The IPR–β‐cyclocitral co‐crystal structure shows the ligand binds in a non‐active conformation
